# According to ChEMBL document CHEMBL1154179, “Analogs of a 4-aminothieno[2,3-d]pyrimidine lead (QB13) as modulators of P-glycoprotein substrate specificity” (Bioorg Med Chem Lett, 2009):
# Experiments:
# Type in all cases: cell-based
# [1] = target: T1, ATP-dependent translocase ABCB1 (Homo sapiens, UniProt P08183); experiment: Modulation of P-gp overexpressed in human A2780 cells assessed as daunorubicin accumulation preincubated 15 mins prior to daunorubicin addition measured after 180 mins by fluorescence assay
# T1 sequence (P08183 whole entry): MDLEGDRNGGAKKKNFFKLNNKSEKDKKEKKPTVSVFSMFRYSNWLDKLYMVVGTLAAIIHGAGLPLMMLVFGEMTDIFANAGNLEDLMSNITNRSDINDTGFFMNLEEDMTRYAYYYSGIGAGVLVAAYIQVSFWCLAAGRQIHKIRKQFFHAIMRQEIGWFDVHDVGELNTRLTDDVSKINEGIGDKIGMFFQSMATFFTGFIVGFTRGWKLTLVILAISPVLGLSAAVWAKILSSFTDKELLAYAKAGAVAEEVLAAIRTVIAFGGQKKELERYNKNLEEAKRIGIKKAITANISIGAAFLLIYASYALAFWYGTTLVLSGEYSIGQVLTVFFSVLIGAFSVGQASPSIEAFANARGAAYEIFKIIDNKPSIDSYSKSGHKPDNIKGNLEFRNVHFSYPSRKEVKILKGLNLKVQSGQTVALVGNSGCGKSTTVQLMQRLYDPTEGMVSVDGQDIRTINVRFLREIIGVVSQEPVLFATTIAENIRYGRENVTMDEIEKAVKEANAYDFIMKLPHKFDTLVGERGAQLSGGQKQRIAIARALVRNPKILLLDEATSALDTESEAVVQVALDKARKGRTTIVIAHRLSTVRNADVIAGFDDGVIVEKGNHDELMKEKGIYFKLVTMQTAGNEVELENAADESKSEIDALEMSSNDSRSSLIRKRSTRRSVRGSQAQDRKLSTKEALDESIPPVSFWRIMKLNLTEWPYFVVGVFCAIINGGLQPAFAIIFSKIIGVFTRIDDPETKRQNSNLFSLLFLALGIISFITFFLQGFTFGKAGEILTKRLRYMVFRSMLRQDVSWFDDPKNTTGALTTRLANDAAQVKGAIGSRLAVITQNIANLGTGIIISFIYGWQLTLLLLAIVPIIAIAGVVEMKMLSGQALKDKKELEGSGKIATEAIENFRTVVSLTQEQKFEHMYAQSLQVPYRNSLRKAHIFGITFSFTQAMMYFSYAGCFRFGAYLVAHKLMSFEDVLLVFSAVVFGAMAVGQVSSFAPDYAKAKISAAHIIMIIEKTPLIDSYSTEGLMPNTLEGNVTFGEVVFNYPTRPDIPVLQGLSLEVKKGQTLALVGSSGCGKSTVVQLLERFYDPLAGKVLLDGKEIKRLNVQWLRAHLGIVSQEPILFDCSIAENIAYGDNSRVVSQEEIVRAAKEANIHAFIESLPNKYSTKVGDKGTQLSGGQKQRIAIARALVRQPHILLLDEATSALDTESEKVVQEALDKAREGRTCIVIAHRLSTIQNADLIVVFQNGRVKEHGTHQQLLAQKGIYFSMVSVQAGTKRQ
# [2] = target: T1, ATP-dependent translocase ABCB1; experiment: Modulation of P-gp overexpressed in human A2780 cells assessed as daunorubicin accumulation at 31.6 uM by MTT assay; conditions: a2780, 31.6 µM
# [3] = target: T1, ATP-dependent translocase ABCB1; experiment: Modulation of P-gp overexpressed in human A2780 cells assessed as colchicine accumulation at 31.6 uM by MTT assay; conditions: a2780, 31.6 µM
# [4] = target: T1, ATP-dependent translocase ABCB1; experiment: Modulation of P-gp overexpressed in human A2780 cells assessed as vinblastin accumulation at 31.6 uM by MTT assay; conditions: a2780, 31.6 µM
Structure (SMILES),EC50 [1] [nM],Activity [2],Activity [3],Activity [4]
Nc1nc(SC(C(=O)O)c2ccccc2)nc2sc3c(c12)CCCC3 (centres undefined),> 100000,–,–,–
CCSc1nc(N)c2c(C)c(C)sc2n1,4590,–,–,–
CCOC(=O)CSc1nc(N)c2c3c(sc2n1)CCCC3,2240,Active,Not Active,Active
Cc1sc2nc(SC(C(=O)O)c3ccccc3)nc(N)c2c1C (centres undefined),> 100000,–,–,–
CCOC(=O)CSc1nc(N)c2ccccc2n1,3980,–,–,–
Cc1sc2nc(SCCc3ccccc3)nc(N)c2c1C,2250,Active,Not Active,Active
Nc1nc(SCCO)nc2sc3c(c12)CCCC3,1920,–,–,–
CCOC(=O)CSc1nc(N)c2c3c(sc2n1)CCC3,4150,–,–,–
CSc1nc(N)c2c3c(sc2n1)CCCC3,2650,–,–,–
COc1cc2nc(SCCc3ccccc3)nc(N)c2cc1OC,1520,–,–,–
CCOC(=O)CSc1nc(N)c2c3c(sc2n1)COCC3,1550,–,–,–
CSc1nc(N)c2c(C)c(C)sc2n1,1310,–,–,–

# Continued by falling EC50 [1], values first:
EC50 [1] [nM],Activity [2],Activity [3],Activity [4],Structure (SMILES)
1310,–,–,–,Cc1sc2nc(SCC(=O)c3ccccc3)nc(N)c2c1C
1210,–,–,–,CCOC(=O)CSc1nc(N)c2cc(OC)c(OC)cc2n1
1100,–,–,–,Nc1nc(SCCc2ccccc2)nc2ccccc12
1020,Active,Not Active,Active,Nc1nc(SCCc2ccccc2)nc2sc3c(c12)CCCC3
970,–,–,–,Nc1nc(SCCc2ccccc2)nc2sc3c(c12)CCC3
900,Active,Not Active,Active,CCOC(=O)CSc1nc(N)c2c(C)c(C)sc2n1
640,–,–,–,Nc1nc(SCC(=O)c2ccccc2)nc2sc3c(c12)CCCC3
640,–,–,–,CCOC(=O)CSc1nc(N)c2c3c(sc2n1)CN(Cc1ccccc1)CC3
560,–,–,–,Nc1nc(SCCc2ccccc2)nc2sc3c(c12)CCOC3
460,–,–,–,CCSc1nc(N)c2c3c(sc2n1)CCCC3
